According to PMC6349357, “Computational and experimental analysis of bioactive peptide linear motifs in the integrin adhesome” (PLoS ONE, 2019):
Marks after values point to notes of the source that are not given here.

Key:
resting platelets = experiment: Platelet aggregation induced by peptide in resting washed platelets (activation); type: cell-based, human (healthy volunteers); settings: for Activation: platelet aggregation in resting platelets after 6 minutes incubation with peptide, pal-peptides 20 μM, tat-peptides 50 μM, optical density, aggregometer, mean, n>=3; for Aggregation before TRAP activation, donor d: replicate donor d; for Aggregation before TRAP activation, donor f: replicate donor f; for Aggregation before TRAP activation, donor g: replicate donor g
Summary of the method: (§1)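 Aggregation was read by optical density at 37°C under 1100 rpm stirring. Samples were 3x10^5/μl washed human platelets, rested 45 min and supplemented with 1.8 mM calcium chloride. Peptide went in at 2 min, followed 6 min later by TRAP at an experiment-dependent concentration, with 7 min further recording.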

TRAP-activated platelets = experiment: Inhibition of TRAP-induced platelet aggregation after pre-incubation with peptide; type: cell-based, human (healthy volunteers); settings: for Aggregation after TRAP, peptide alone 1x (A 1x / B 1x) / Aggregation after TRAP, peptide alone 2x (A 2x / B 2x): TRAP 2 μM after 6 minutes pre-incubation, mean n = 3; for Aggregation after TRAP, peptide alone 1x (A 1x / B 1x): 4 μM pal-peptides, 10 μM tat-peptides; for Aggregation after TRAP, peptide alone 2x (A 2x / B 2x): double concentration of 4 μM (pal) / 10 μM (tat); for Aggregation after TRAP activation, donor d: replicate donor d; for Aggregation after TRAP activation, donor f: replicate donor f; for Aggregation after TRAP activation, donor g: replicate donor g
Summary of the method: as §1

[1] = type: physicochemical
Procedure: Peptides were stored in powder form at -80°C. Prior to use, they were left at room temperature for one hour. They were then mixed with a specific volume of deionised water to bring them to a 1mM concentration and were then aliquoted and frozen at -80°C. They were thawed a single time before use and discarded after an experiment. Peptides which were not soluble in deionised water (pal-APTNEFYA, pal-LEEDDEEGE, pal-TNITYRGT and pal-KLLITIHDRKE) were dissolved in a 10% DMSO and 90% deionised water solution (leading to a final concentration of 0.2% DMSO when combined with platelets, see below). These peptides were further diluted during platelet aggregations.

[2] = tested on: tyrosine phosphorylation in platelets; experiment: Phosphotyrosine western blot (4G10) of platelets treated with peptide; type: cell-based, human (healthy volunteers); design: key to Phospho: R: in resting platelets; A: after TRAP activation
Procedure: A platelet concentration of 3x10^5 /μl was used when performing standard aggregations and a concentration of 1x10^6 /μl was used for sample preparation for western blot analysis. The extent of platelet aggregation was measured by quantifying the optical density of the samples using the Bio-Data PAP-8 aggregometer (platelet aggregation profiler, Horsham, PA, USA). A temperature of 37°C was maintained and samples were stirred using magnets spinning at 1100 rpm. 200 μl of washed platelets was added to each aggregation tube. Different volumes of buffer, peptide and TRAP were added to achieve the desired concentrations. Peptide/buffer was added to each well after two minutes. TRAP, with a final concentration depending on the experiment, was added 6 minutes later and data was collected for an additional 7 minutes.
After the aggregation step, tubes were immediately placed on ice. 27 μl of lysis buffer was then added and the tube was vortexed vigorously. Lysates were left on ice for one hour and vortexed frequently. Proteins were then centrifuged at 14,000 rcf for 10 minutes to remove debris. Samples were then mixed with 2x sample buffer. 50 μl each sample was added to 50 μl of sample buffer. The protein was then denatured by heating to 95°C for 5 minutes. 10 μl of lysate was kept for protein quantification. All samples and lysates were frozen at -80°C.
The Bradford assay was then performed on the lysates to determine protein concentration. Protein concentrations were measured using the Bio-Rad DC Protein Assay. A calibration was created using samples containing a known concentration of bovine serum albumin. These were prepared in advance by sequential dilutions with final concentrations of 1.5mg/ml, 1mg/ml, 0.8mg/ml, 0.6mg/ml, 0.4mg/ml, 0.2mg/ml, 0mg/ml. Samples were then dispensed into a 96 well plate and the Bio-Rad DC reagents were added as described in the protocol. Samples were left to rest for 15 minutes and were then read using 690 0.15 mode on the Wallac plate reader. A standard curve was calculated from the standard samples of known concentration and the y = ax+b equation was used to determine the concentration of the other samples.
Sodium Dodecyl Sulfate Polyacrylamide Gel Electrophoresis (SDS-PAGE) was performed to separate proteins by molecular weight. Polyacrylamide gels were prepared (see Reagents section). Samples or molecular markers were loaded in volumes to give 20 μg of protein. The gels were then run for approximately 80 minutes or until the samples reached the end of the gel. The proteins were then transferred to polyvinylidene difluoride (PVDF) membranes using a Bio-Rad Wet Blot Transfer Cell apparatus. During the transfer the membranes were submerged in 1x transfer buffer (10% 10x transfer buffer, 70% deionised water and 20% methanol). Transfer was performed either overnight at 40 volts at 4°C, or at 100 volts for 1 hour cooled with an ice block. After the transfer the membranes were blocked for 1 hour using 3% bovine albumin serum (BSA) dissolved in TBS-T. Membranes were incubated with 4G10 antibody with a 1:1000 dilution. Unbound primary antibody was washed off with TBS-T three times for 5 minutes each. Membranes were then incubated with anti-mouse IgG secondary antibody (Millipore) with a dilution of 1:30,000. Membranes were submerged in chemiluminescence ECL solution (Thermo Scientific). They were then measured using the western blot developer UVP. One image was taken every 80 seconds for 40 minutes. Numeric data was extracted from selected blots using ImageJ.

[3] = platelet aggregation induced by 4 μM TRAP in platelets pre-incubated with peptide (low value = inhibition), pal-peptides 20 μM, tat-peptides 50 μM, mean, n>=3
[4] = TRAP 4 μM, pal 20 μM, tat 50 μM

For “pal-LEEDDEEGE [pal-ITGA2B_tail, N-terminally palmitylated ITGA2B tail peptide]”, which Activation (resting platelets; unit assumed) is on record?
Its Activation is 2%.

What about the “Aggregation before TRAP activation, donor d” value (resting platelets; pal 20 μM, tat 50 μM) of the same substance?
The value was 2.

What about the “Aggregation before TRAP activation, donor f” value (resting platelets; pal 20 μM, tat 50 μM) of the same substance?
The value was 3.

What about the “Aggregation before TRAP activation, donor g” value (resting platelets; pal 20 μM, tat 50 μM) of the same substance?
The value was 2.

What about the “Aggregation after TRAP, peptide alone 1x (A 1x / B 1x)” value (TRAP-activated platelets) of the same substance?
The value was 65.67.

And the “Aggregation after TRAP, peptide alone 2x (A 2x / B 2x)” value (TRAP-activated platelets)?
Its value is 66.

What about the “Platelet aggregation remaining after TRAP (low = inhibition)” value (TRAP-activated platelets; [3]) of the same substance?
Its value is 52.

And the “Aggregation after TRAP activation, donor d” value (TRAP-activated platelets; [4])?
The value was 74.

What about the “Aggregation after TRAP activation, donor f” value (TRAP-activated platelets; [4]) of the same substance?
Its value is 76.

What about the “Aggregation after TRAP activation, donor g” value (TRAP-activated platelets; [4]) of the same substance?
Its value is 4.

What about the “Solubility in deionised water” value [1] of the same substance?
The value was “not soluble”.

With “pal-APTNEFYA [pal-SDC4_tail, N-terminally palmitylated syndecan-4 tail peptide]” as the substance, how does the Activation, 5μM (resting platelets; S3 Table, peptide 5 μM, n=3, unit assumed) read?
The Activation, 5μM was 2%.

What about the Activation, 20μM (resting platelets; S3 Table, peptide 20 μM, n=3, unit assumed) of the same substance?
Its Activation, 20μM is 2%.

What about the Activation (resting platelets; unit assumed) of the same substance?
The Activation was 7%.

And the Activation, donor 14 06 13 (resting platelets; replicate 14_06_13, SDC4 peptides and controls, 20 μM, unit assumed)?
The Activation, donor 14 06 13 was 2%.

What about the “Activation, donor 18_06_13” value (resting platelets; replicate 18_06_13, SDC4 peptides and controls, 20 μM, in % (unit assumed)) of the same substance?
Its value is 3.

And the “Activation, donor 20_06_13” value (resting platelets; replicate 20_06_13, SDC4 peptides and controls, 20 μM, in % (unit assumed))?
Its value is 2.

What about the Activation, donor 20 08 13 (resting platelets; replicate 20_08_13, SDC4 peptides and controls, 20 μM, unit assumed) of the same substance?
The Activation, donor 20 08 13 was 5%.

And the “Activation, donor 22_08_13_DONOR1” value (resting platelets; replicate 22_08_13_DONOR1, SDC4 peptides and controls, 20 μM)?
The value was 2.

What about the “Activation, donor 22_08_13_DONOR2” value (resting platelets; replicate 22_08_13_DONOR2, SDC4 peptides and controls, 20 μM) of the same substance?
The value was 2.

What about the “Aggregation before TRAP activation, donor d” value (resting platelets; pal 20 μM, tat 50 μM) of the same substance?
Its value is 2.

And the “Aggregation before TRAP activation, donor f” value (resting platelets; pal 20 μM, tat 50 μM)?
The value was 4.

What about the “Aggregation before TRAP activation, donor g” value (resting platelets; pal 20 μM, tat 50 μM) of the same substance?
Its value is 15.

What about the “Aggregation (inhibition effects of syndecan-derived peptides)” value (TRAP-activated platelets; S2 Table A, peptide 20 μM, TRAP 4 μM, mean, n=6) of the same substance?
Its value is 34.

And the “Summary of effects of SDC4-derived palmitylated peptides and scrambled controls, 20μM” value (TRAP-activated platelets; S2 Table B / S2 Fig, 20 μM, activation of resting platelets and inhibition of aggregation induced by 4 μM TRAP, in words)?
The value was “Inhibitor”.

What about the “Platelet aggregation remaining after TRAP (low = inhibition)” value (TRAP-activated platelets; S3 Table, peptide 5 μM, aggregation after TRAP, n=3) of the same substance?
Its value is 61.

What about the “Platelet aggregation remaining after TRAP (low = inhibition)” value (TRAP-activated platelets; S3 Table, peptide 20 μM, aggregation after TRAP, n=3) of the same substance?
The value was 34.

And the “Aggregation after TRAP, peptide alone 1x (A 1x / B 1x)” value (TRAP-activated platelets)?
The value was 27.67.

What about the “Aggregation after TRAP, peptide alone 2x (A 2x / B 2x)” value (TRAP-activated platelets) of the same substance?
The value was 24.67.

And the “Platelet aggregation after TRAP activation” value (TRAP-activated platelets; [3])?
Its value is 34 ^*.

What about the “Inhibition, donor 14_06_13” value (TRAP-activated platelets; replicate 14_06_13, peptide 20 μM, TRAP 4 μM) of the same substance?
Its value is 40.

What about the “Inhibition, donor 18_06_13” value (TRAP-activated platelets; replicate 18_06_13, peptide 20 μM, TRAP 4 μM) of the same substance?
The value was 67.

And the “Inhibition, donor 20_06_13” value (TRAP-activated platelets; replicate 20_06_13, peptide 20 μM, TRAP 4 μM)?
The value was 51.

And the “Inhibition, donor 20_08_13” value (TRAP-activated platelets; replicate 20_08_13, peptide 20 μM, TRAP 4 μM)?
The value was 11.

And the “Platelet aggregation remaining after TRAP (low = inhibition)” value (TRAP-activated platelets; replicate 22_08_13_DONOR1, peptide 20 μM, TRAP 4 μM)?
The value was 6.

And the “Platelet aggregation remaining after TRAP (low = inhibition)” value (TRAP-activated platelets; replicate 22_08_13_DONOR2, peptide 20 μM, TRAP 4 μM)?
Its value is 34.

And the “Aggregation after TRAP activation, donor d” value (TRAP-activated platelets; [4])?
Its value is 9.

What about the “Aggregation after TRAP activation, donor f” value (TRAP-activated platelets; [4]) of the same substance?
The value was 54.

And the “Aggregation after TRAP activation, donor g” value (TRAP-activated platelets; [4])?
Its value is 41.

And the “Solubility in deionised water” value [1]?
Its value is “not soluble”.

What does the source list for “tat-DPMSSTYIEELGKREVTIPPKYRELLA-(NH2) [tat-CAST_1, tat peptide from calpastatin (CAST)]”?
Activation (resting platelets; unit assumed): 3%; Aggregation before TRAP activation, donor h (resting platelets; replicate donor h, pal 20 μM, tat 50 μM): 4; Aggregation before TRAP activation, donor i (resting platelets; replicate donor i, pal 20 μM, tat 50 μM): 4; Aggregation before TRAP activation, donor j (resting platelets; replicate donor j, pal 20 μM, tat 50 μM): 3; Aggregation after TRAP, peptide alone 1x (A 1x / B 1x) (TRAP-activated platelets): 70.33; Aggregation after TRAP, peptide alone 2x (A 2x / B 2x) (TRAP-activated platelets): 70.67; Platelet aggregation remaining after TRAP (low = inhibition) (TRAP-activated platelets; [3]): 72; Aggregation after TRAP activation, donor h (TRAP-activated platelets; replicate donor h, TRAP 4 μM, pal 20 μM, tat 50 μM): 77; Aggregation after TRAP activation, donor i (TRAP-activated platelets; replicate donor i, TRAP 4 μM, pal 20 μM, tat 50 μM): 63; Aggregation after TRAP activation, donor j (TRAP-activated platelets; replicate donor j, TRAP 4 μM, pal 20 μM, tat 50 μM): 76; Phosphotyrosine blot density, peptide + TRAP, Average ([2]; average of 3 replicates, tat peptide 50 µM, TRAP 4 µM): 64.53; Phosphorylation in resting platelets ([2]; in words): no effect; Phosphorylation intensity of TRAP activated platelets ([2]; in words, p = 0.03): increased the phosphorylation intensity; Phospho ([2]; phosphorylation changes associated with peptide treatment, pal 20 μM, tat 50 μM, TRAP 4 μM): A; relative density (peptide lane to activated control), replicate 1 ([2]; replicate 1): 4.12; Phosphotyrosine blot density, peptide + TRAP, replicate 1 ([2]; replicate 1, tat peptide 50 µM, TRAP 4 µM): 80; relative density (peptide lane to activated control), replicate 2 ([2]; replicate 2): 1.42; Phosphotyrosine blot density, peptide + TRAP, replicate 2 ([2]; replicate 2, tat peptide 50 µM, TRAP 4 µM): 58.7; relative density (peptide lane to activated control), replicate 3 ([2]; replicate 3): 1.22; Phosphotyrosine blot density, peptide + TRAP, replicate 3 ([2]; replicate 3, tat peptide 50 µM, TRAP 4 µM): 54.9
